Experiments:
HEP2 = biological target: T1, HEP2 (Homo sapiens, UniProt P43116); assay: Radioligand binding, EP2 receptor; conditions: [3H]PGE2 5 nM, HEK-293 membranes
T1 construct: expressed in transfected cells; host or cells: HEK-293
Experimental: (§1) HEK-293 cells stably expressing the human or feline FP receptor, or EP1, EP2, or EP4 receptors were washed with TME buffer, scraped from the bottom of the flasks, and homogenized for 30 sec using a Brinkman PT 10/35 polytron. TME buffer was added to achieve a final 40 ml volume in the centrifuge tubes (the composition of TME is 100 mM TRIS base, 20 mM MgCl2, […]; 10N HCl is added to achieve a pH of 7.4).
(§2) The cell homogenate was centrifuged at 19000 r.p.m. for 20 min at 4° C. using a Beckman Ti-60 rotor. The resultant pellet was resuspended in TME buffer to give a final 1 mg/ml protein concentration, as determined by Biorad assay. Radioligand binding competition assays vs. [^3H-]17-phenyl PGF2α (5 nM) were performed in a 100 μl volume for 60 min. Binding reactions were started by adding plasma membrane fraction. The reaction was terminated by the addition of 4 ml ice-cold TRIS-HCl buffer and rapid filtration through glass fiber GF/B filters using a Brandel cell harvester. The filters were washed 3 times with ice-cold buffer and oven dried for one hour. Non-specific binding was determined with 10 uM unlabeled 17-phenyl PGF2α.
(§3) [^3H-] PGE2 (5 nM; specific activity 180 Ci mmol) was used as the radioligand for EP receptors. Binding studies employing EP1, EP2, EP3, EP4 were performed in duplicate in at least three separate experiments. A 200 μl assay volume was used. Incubations were for 60 min at 25° C. and were terminated by the addition of 4 ml of ice-cold 50 mM TRIS-HCl, followed by rapid filtration through Whatman GF/B filters and three additional 4 ml washes in a cell harvester (Brandel). Non-specific binding determined with 10^−5M of unlabeled PGE2.

HEP4 = biological target: T2, HEP4 (Homo sapiens, UniProt P35408); assay: Radioligand binding, EP4 receptor; conditions: [3H]PGE2 5 nM, HEK-293 membranes
T2 construct: expressed in transfected cells; host or cells: HEK-293
Experimental: as §1, §2, §3

hEP3A/Gqi5 = biological target: T3, hEP3A/Gqi5 (Homo sapiens, UniProt P43115); assay: FLIPR calcium signal, hEP3A/Gqi5; assay type: cell-based; conditions: HEK-293 (EBNA) cells, read-out: FUNCTIONAL EC50 HEP3A
T3 construct: expressed in transfected cells; host or cells: HEK-293 (EBNA)
T3 sequence (P43115 1-390): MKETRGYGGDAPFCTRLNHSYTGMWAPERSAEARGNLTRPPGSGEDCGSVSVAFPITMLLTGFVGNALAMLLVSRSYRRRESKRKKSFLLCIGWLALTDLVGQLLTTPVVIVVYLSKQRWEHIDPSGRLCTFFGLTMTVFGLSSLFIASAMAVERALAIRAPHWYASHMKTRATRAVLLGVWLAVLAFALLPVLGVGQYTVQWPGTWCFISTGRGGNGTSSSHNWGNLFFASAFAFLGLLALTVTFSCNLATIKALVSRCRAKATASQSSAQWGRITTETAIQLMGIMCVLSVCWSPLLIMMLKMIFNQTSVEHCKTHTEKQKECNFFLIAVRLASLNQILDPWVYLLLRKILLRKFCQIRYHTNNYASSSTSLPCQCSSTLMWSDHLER
Experimental: (§4) HEK-293 (EBNA) cells, stably expressing one type or subtype of recombinant human prostaglandin receptors (prostaglandin receptors expressed: hDP/Gqs5; hEP1; hEP2/Gqs5; hEP3A/Gqi5; hEP4/Gqs5; hFP; hIP; hTP), were cultured in 100 mm culture dishes in high-glucose DMEM medium containing 10% fetal bovine serum, 2 mM 1-glutamine, 250 μg/ml geneticin (G418) and 200 μg/ml hygromycin B as selection markers, and 100 units/ml penicillin G, 100 μg/ml streptomycin and 0.25 μg/ml amphotericin B. • (b) Calcium Signal Studies on the FLIPR™
(§5) Cells were seeded at a density of 5×10^4 cells per well in Biocoat® Poly-D-lysine-coated black-wall, clear-bottom 96-well plates (Becton-Dickinson) and allowed to attach overnight in an incubator at 37° C. Cells were then washed two times with HBSS-HEPES buffer (Hanks Balanced Salt Solution without bicarbonate and phenol red, 20 mM HEPES, pH 7.4) using a Denley Cellwash plate washer (Labsystems). After 45 minutes of dye-loading in the dark, using the calcium-sensitive dye Fluo-4 AM at a final concentration of 2 μM, plates were washed four times with HBSS-HEPES buffer to remove excess dye leaving 100 μl in each well. Plates were re-equilibrated to 37° C. for a few minutes.
(§6) Cells were excited with an Argon laser at 488 nm, and emission was measured through a 510–570 nm bandwidth emission filter (FLIPR™, Molecular Devices, Sunnyvale, Calif.). Drug solution was added in a 50 μl volume to each well to give the desired final concentration. The peak increase in fluorescence intensity was recorded for each well. On each plate, four wells each served as negative (HBSS-HEPES buffer) and positive controls (standard agonists: BW245C (hDP); PGE2 (hEP1; hEP2/Gqs5; hEP3A/Gqi5; hEP4/Gqs5); PGF2α (hFP); carbacyclin (hIP); U46619 (hTP), depending on receptor). The peak fluorescence change in each drug-containing well was then expressed relative to the controls.
(§7) Compounds were tested in a high-throughput (HTS) or concentration-response (CoRe) format. In the HTS format, forty-four compounds per plate were examined in duplicates at a concentration of 10^−5 M. To generate concentration-response curves, four compounds per plate were tested in duplicates in a concentration range between 10^−5 and 10^−11 M. The duplicate values were averaged. In either, HTS or CoRe format each compound was tested on at least 3 separate plates using cells from different passages to give an n≧3.

hEP4/Gqs5 = biological target: T4, hEP4/Gqs5 (Homo sapiens, UniProt P35408); assay: FLIPR calcium signal, hEP4/Gqs5; assay type: cell-based; conditions: HEK-293 (EBNA) cells, read-out: FUNCTIONAL EC50 HEP4
T4 construct: expressed in transfected cells; host or cells: HEK-293 (EBNA)
Experimental: as §4, §5, §6, §7

hTP = biological target: T5, hTP (Homo sapiens, UniProt P21731); assay: FLIPR calcium signal, hTP; assay type: cell-based; conditions: HEK-293 (EBNA) cells, read-out: FUNCTIONAL EC50 HTP
T5 construct: expressed in transfected cells; host or cells: HEK-293 (EBNA)
T5 sequence (P21731 1-343): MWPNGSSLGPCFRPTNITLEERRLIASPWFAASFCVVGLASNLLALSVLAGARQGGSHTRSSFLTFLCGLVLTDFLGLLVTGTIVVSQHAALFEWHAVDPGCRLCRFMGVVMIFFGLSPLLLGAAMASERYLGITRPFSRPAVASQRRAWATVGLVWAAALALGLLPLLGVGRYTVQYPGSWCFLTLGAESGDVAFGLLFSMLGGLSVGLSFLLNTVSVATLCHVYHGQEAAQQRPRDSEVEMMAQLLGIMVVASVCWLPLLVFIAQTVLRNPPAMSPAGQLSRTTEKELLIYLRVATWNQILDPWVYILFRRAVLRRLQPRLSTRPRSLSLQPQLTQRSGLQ
Experimental: as §4, §5, §6, §7

Beagle dogs [1] = assay: Intraocular pressure in dogs (pneumatonometry); assay type: in vivo; conditions: dog, topical 25 μL drop, Conc. 0.1%, 5 day study
Experimental: (§8) • Intraocular Pressure (IOP) Intraocular pressure studies in dogs involved pneumatonometry performed in conscious, Beagle dogs of both sexes (10–15 kg). The animals remained conscious throughout the study and were gently restrained by hand. Drugs were administered topically to one eye as a 25 μL volume drop, the other eye received 25 μL vehicle (0.1% polysorbate 80:10 mM TRIS) as a control. Proparacaine (0.1%) was used for corneal anesthesia during tonometry. Intraocular pressure was determined just before drug administration and at 2, 4 and 6 hr thereafter on each day of the 5 day study. Drug was administered immediately after the first IOP reading. • An analogous procedure was carried out with cynomolgus monkeys with measurements at 2, 4, 6, and 24 hours after a single dose. • Pupil Diameter • Dog pupil diameter was measured using an optistick (a mm ruler which included half-circle references of standard widths (mm) for reference. Gently restraining the dog by hand, pupil diameter was determined by matching a half-circle to the pupil in normal room light. In dogs with very dark pupils a specialized penlight was used, but only very briefly to avoid pupil constriction. Pupil diameter was measured at the same time as IOP and hyperemia. • Ocular Surface Hyperemia • Ocular surface hyperemia was visually assessed and scored according to a system typically used clinically.

Beagle dogs [2] = assay: Ocular surface hyperemia in dogs; assay type: in vivo; conditions: dog, topical, Conc. 0.1%; score: trace 0.5, mild 1, moderate 2, severe 3
Experimental: as §8
• Ocular surface hyperemia was evaluated at the same time points as intraocular pressure measurement. It should be noted that untreated dog eyes frequently have a pink/red tone. Thus, values of trace or even mild are not necessarily out of the normal range.

hIP = biological target: T6, hIP (Homo sapiens, UniProt P43119); assay: FLIPR calcium signal, hIP; assay type: cell-based; conditions: HEK-293 (EBNA) cells, read-out: FUNCTIONAL EC50 HIP
T6 construct: expressed in transfected cells; host or cells: HEK-293 (EBNA)
Experimental: as §4
Cells were seeded at a density of 5×10^4 cells per well in Biocoat® Poly-D-lysine-coated black-wall, clear-bottom 96-well plates (Becton-Dickinson) and allowed to attach overnight in an incubator at 37° C. Cells were then washed two times with HBSS-HEPES buffer (Hanks Balanced Salt Solution without bicarbonate and phenol red, 20 mM HEPES, pH 7.4) using a Denley Cellwash plate washer (Labsystems). […]
Cells were excited with an Argon laser at 488 nm, and emission was measured through a 510–570 nm bandwidth emission filter (FLIPR™, Molecular Devices, Sunnyvale, Calif.). […] The peak increase in fluorescence intensity was recorded for each well. […] The peak fluorescence change in each drug-containing well was then expressed relative to the controls. […]

HEP3D = biological target: T7, HEP3D (Homo sapiens, UniProt P43115); assay: Radioligand binding, EP3 receptor; conditions: [3H]PGE2 5 nM
T7 sequence (P43115 1-374 isoform P43115-4): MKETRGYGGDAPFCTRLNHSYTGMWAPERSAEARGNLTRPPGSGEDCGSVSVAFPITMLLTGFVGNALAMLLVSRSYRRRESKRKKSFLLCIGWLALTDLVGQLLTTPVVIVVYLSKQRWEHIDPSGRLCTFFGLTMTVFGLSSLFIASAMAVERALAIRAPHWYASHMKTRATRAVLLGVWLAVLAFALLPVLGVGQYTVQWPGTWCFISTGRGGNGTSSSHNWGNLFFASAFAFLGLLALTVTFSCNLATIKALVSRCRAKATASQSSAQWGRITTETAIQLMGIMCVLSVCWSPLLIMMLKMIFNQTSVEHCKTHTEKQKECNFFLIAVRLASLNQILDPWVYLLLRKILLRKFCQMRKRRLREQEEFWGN
Experimental: as §1, §2, §3

hEP2/Gqs5 = biological target: T8, hEP2/Gqs5 (Homo sapiens, UniProt P43116); assay: FLIPR calcium signal, hEP2/Gqs5; assay type: cell-based; conditions: HEK-293 (EBNA) cells, read-out: FUNCTIONAL EC50 HEP2
T8 construct: expressed in transfected cells; host or cells: HEK-293 (EBNA)
Experimental: as §4, §5, §6
Compounds were tested in a high-throughput (HTS) or concentration-response (CoRe) format. […]

T1 sequence (P43116 whole entry): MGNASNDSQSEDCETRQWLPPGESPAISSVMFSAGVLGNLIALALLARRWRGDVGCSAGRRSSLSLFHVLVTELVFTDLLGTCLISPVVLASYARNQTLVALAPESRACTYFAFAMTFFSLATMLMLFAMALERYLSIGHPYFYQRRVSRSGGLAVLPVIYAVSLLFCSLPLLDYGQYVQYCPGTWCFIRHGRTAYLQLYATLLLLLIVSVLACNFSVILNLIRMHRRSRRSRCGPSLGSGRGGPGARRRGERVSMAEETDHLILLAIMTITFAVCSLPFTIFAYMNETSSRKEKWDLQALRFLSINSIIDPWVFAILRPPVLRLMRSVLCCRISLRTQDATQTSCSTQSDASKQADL
T2 sequence (P35408 whole entry): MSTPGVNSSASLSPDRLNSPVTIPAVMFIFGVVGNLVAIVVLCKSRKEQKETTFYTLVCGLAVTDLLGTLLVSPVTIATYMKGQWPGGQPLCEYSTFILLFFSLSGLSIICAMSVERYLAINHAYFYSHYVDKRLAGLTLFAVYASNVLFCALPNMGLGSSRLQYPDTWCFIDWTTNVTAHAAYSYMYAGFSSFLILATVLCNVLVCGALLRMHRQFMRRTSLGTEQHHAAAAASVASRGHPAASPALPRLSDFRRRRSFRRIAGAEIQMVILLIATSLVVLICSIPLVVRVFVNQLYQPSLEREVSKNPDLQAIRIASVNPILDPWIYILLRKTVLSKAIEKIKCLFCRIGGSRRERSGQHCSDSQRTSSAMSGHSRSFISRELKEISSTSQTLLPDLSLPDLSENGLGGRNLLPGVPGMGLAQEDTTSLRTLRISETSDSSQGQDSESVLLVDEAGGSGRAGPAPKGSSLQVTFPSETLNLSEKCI
T4 sequence (P35408 whole entry): as above
T6 sequence (P43119 whole entry): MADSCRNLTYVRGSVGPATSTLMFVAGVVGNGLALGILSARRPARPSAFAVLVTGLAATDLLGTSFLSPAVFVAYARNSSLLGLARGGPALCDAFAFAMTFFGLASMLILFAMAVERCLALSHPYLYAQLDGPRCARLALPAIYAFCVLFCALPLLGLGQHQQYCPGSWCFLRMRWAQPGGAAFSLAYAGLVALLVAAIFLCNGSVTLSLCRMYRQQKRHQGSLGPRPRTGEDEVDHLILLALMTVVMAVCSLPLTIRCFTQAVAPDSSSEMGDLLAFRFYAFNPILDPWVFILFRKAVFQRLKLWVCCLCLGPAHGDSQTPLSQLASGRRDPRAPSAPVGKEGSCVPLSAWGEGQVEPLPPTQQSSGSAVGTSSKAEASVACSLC
T8 sequence (P43116 whole entry): as the sequence (P43116 whole entry) above

| Structure (SMILES) | IC50 (HEP2) | IC50 (HEP4) | EC50 (hEP3A/Gqi5) | EC50 (hEP4/Gqs5) | EC50 (hTP) | Max. ΔIOP (Beagle dogs [1]) | Max hyperemia (Beagle dogs [2]) | EC50 (hIP) | IC50 (HEP3D) | EC50 (hEP2/Gqs5) |
| --- | --- | --- | --- | --- | --- | --- | --- | --- | --- | --- |
| O=C(O)CSCCCS[C@H]1C(=O)CC[C@@H]1/C=C/C(O)CCc1ccc2ccccc2c1 (single isomer, unassigned) [Compound 153] | > 10000 nM | 140 nM | > 10000 nM | 0.3 nM | > 10000 nM | −4.4 mm Hg | 1.8 |  |  |  |
| COC(=O)CSCCCS[C@H]1C(=O)C[C@@H](CO)[C@@H]1/C=C/C(O)CCc1ccc2ccccc2c1 (single isomer, unassigned) [drawing 39] |  | 140 nM |  | 1860 nM |  |  |  | > 10000 nM |  |  |
| O=C(O)CSCCCS[C@H]1C(=O)CC[C@@H]1/C=C/C(O)Cc1csc2ccccc12 (single isomer, unassigned) [drawing 55, {3-[2-(4-Benzo[b]thiophen-3-yl-3-hydroxy-but-1-enyl)-5-oxo-cyclopentylsulfanyl]-propylsulfanyl}-acetic acid] | 600 nM | 26 nM | > 10000 nM | 7240 nM | 3.7 nM |  |  | 389 nM | > 10000 nM | > 10000 nM |
| O=C(O)CSCCCS[C@H]1C(=O)CC[C@@H]1/C=C/C(O)Cc1csc2ccccc12 (single isomer, unassigned) [drawing 56, {3-[2-(4-Benzo[b]thiophen-3-yl-3-hydroxy-but-1-enyl)-5-oxo-cyclopentylsulfanyl]-propylsulfanyl}-acetic acid] | 3500 nM |  | > 10000 nM | 6.8 nM | > 10000 nM |  |  |  | > 10000 nM | > 10000 nM |
| O=C(O)CSCCCS[C@H]1C(=O)C[C@@H](CO)[C@@H]1/C=C/C(O)CCc1ccc2ccccc2c1 (stereo partly drawn) [Compound 141b, {3-[(1R,2S,3R)-3-Hydroxymethyl-2-((E)-3-hydroxy-5-naphthalen-2-yl-pent-1-enyl)-5-oxo-cyclopentylsulfanyl]-propylsulfanyl}-acetic acid] |  | 400 nM |  | 219 nM |  | −1.6 mm Hg | 0.7 |  |  |  |
